Assay results as given in US6350766B1, “Dihydropyridine derivative” (Ajinomoto Co., Inc., priority 1997, dated 2002).

Tests used:
N-type calcium channel = molecular target: T1, N-type calcium channel (Rattus norvegicus, UniProt Q02294); assay: Inhibition of N-type calcium channel: calcium currents in cells of maxillary sympathetic ganglions of rats, whole cell voltage clamp; type: cell-based; conditions: rat maxillary sympathetic ganglion cells, depolarization from -60 mV to 0 mV, barium as charge carrier
T1 construct: from tissue; host or cells: freshly dissociated sympathetic ganglion cells of Wistar rats (2 to 4 weeks old)
T1 sequence (Q02294 whole entry): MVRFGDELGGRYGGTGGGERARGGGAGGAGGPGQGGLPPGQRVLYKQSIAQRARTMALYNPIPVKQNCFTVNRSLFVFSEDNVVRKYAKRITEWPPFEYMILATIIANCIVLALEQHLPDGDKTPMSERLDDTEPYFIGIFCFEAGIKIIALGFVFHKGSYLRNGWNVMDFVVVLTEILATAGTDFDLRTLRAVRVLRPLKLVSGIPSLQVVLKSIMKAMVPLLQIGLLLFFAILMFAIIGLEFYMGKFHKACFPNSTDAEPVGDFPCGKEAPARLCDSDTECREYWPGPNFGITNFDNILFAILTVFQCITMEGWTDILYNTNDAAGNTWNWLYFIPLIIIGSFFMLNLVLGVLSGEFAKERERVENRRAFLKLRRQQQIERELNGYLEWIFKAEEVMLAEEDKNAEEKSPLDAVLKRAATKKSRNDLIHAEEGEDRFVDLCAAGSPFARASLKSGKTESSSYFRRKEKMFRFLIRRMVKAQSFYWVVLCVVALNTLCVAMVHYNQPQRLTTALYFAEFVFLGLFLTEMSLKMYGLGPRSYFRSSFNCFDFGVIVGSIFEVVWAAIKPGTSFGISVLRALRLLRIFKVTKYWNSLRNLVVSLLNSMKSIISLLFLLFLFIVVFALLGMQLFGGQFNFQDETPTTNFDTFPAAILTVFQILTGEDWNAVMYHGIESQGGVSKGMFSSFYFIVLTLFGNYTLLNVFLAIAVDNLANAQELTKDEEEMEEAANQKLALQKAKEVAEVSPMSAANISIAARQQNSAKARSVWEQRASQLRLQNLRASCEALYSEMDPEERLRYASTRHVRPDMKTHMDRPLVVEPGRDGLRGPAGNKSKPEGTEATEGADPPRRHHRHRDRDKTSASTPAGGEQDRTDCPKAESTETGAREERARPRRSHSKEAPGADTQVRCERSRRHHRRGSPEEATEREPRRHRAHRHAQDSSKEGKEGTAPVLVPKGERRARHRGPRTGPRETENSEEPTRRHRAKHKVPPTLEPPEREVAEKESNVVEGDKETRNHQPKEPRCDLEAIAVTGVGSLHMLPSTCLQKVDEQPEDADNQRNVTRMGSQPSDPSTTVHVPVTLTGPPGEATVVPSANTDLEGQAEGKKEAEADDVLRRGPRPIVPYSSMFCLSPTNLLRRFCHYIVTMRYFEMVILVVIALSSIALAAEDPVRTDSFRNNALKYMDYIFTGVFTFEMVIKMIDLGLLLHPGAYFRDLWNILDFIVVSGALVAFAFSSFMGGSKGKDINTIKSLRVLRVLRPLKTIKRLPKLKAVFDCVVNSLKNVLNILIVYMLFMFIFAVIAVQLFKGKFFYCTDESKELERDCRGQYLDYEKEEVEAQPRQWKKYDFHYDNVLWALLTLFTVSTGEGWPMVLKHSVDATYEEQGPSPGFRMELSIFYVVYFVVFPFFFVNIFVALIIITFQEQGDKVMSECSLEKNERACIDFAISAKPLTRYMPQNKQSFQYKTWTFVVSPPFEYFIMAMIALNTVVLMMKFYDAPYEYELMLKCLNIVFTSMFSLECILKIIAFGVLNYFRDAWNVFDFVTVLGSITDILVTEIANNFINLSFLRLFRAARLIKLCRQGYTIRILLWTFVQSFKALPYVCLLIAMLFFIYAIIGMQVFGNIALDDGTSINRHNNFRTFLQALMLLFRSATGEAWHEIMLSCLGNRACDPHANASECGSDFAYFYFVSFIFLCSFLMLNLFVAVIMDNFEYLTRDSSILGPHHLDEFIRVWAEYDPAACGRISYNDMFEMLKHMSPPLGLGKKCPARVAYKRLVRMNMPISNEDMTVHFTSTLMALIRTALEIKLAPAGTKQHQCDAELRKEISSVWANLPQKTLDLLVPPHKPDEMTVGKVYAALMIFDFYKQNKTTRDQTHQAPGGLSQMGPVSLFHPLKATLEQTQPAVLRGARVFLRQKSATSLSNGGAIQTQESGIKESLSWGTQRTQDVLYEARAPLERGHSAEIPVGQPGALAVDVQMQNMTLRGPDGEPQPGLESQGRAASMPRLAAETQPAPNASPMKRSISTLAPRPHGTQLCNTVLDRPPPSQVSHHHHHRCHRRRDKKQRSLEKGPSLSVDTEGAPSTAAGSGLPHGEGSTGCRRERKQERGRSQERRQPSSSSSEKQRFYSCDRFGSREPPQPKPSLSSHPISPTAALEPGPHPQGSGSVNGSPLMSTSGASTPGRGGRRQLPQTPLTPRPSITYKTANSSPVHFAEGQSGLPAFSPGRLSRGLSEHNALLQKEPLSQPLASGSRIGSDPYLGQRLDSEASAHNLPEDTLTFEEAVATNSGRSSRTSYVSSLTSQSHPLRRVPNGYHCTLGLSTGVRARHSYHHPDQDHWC
T1 sequence (P54287 whole entry partner): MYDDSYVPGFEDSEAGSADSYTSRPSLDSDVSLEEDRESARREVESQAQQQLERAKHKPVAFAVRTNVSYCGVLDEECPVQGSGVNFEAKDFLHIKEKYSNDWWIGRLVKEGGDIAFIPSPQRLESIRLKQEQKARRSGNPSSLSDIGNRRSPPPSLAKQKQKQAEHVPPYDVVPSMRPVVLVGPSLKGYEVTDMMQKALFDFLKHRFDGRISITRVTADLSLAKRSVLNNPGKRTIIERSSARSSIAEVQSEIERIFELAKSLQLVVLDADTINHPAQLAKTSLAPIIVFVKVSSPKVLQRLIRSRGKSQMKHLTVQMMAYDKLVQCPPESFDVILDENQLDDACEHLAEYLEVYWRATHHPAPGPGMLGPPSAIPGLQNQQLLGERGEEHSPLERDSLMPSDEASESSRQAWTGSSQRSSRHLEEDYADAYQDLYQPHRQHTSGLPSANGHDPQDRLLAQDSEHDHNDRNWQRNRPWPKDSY
T1 sequence (P54290 25-944 partner limits assumed): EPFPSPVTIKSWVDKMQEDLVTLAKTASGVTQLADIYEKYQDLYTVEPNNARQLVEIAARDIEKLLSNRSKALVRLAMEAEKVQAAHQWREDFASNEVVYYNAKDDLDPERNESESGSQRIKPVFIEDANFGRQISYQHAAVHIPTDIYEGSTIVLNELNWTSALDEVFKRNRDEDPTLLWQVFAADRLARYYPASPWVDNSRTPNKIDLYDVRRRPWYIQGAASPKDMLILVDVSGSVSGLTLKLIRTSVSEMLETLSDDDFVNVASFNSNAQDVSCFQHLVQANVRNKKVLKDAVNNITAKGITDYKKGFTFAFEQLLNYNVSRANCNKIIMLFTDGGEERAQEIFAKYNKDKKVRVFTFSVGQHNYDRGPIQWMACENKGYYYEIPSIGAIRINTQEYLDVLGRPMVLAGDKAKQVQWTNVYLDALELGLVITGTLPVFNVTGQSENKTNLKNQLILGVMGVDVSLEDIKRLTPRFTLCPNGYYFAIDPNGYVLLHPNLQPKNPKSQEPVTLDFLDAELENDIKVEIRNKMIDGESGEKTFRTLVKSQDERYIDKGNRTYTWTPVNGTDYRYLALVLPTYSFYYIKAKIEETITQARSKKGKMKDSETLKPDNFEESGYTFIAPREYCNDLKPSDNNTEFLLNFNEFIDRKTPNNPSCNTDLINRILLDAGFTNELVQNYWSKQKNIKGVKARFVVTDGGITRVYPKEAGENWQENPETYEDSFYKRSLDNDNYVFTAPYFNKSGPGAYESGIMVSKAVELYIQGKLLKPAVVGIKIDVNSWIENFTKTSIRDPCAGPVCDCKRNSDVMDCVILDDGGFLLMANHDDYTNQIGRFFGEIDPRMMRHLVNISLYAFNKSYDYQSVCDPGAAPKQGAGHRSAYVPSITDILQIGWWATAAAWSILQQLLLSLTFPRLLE
T1 sequence (P54290 945-1091 partner limits assumed): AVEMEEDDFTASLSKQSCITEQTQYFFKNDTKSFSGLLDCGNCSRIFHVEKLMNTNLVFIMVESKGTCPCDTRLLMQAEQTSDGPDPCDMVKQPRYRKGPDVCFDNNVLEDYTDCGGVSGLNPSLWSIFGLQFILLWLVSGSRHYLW
Experimental: (Test Examples) Inhibition activity of N-type calcium channel:
1) Preparation of cells of maxillary sympathetic ganglions of rats:
The cervix of each of Wistar rats (2 to 4 weeks old) was opened to expose the maxillary ganglions under anesthesia with pentobarbital. A pair of the ganglions were removed and immediately washed with Ca^2+-free Tyrode solution cooled with ice. Each ganglion was cut into 3 or 4 pieces and kept in the Ca^2+-free Tyrode solution for 15 minutes. Then, these pieces were treated with papain [Washington Biochemicals (lot#35J557); 20 U/ml] and then with a mixture of type-2 collagenase [Washington Biochemicals (CLS2); 5900 U/ml] and dispase [Calbiochem (lot#1312973); 16 mg/ml] for one hour. After enzymatic treatment, the ganglion cells were mechanically isolated by pipetting. The isolated ganglion cells were used for the experiments within 6 hours.
2) Determination of calcium electric current:
The calcium electric current was determined by the whole cell voltage clamp method under the fixed membrane potential. The pipette electrode was pulled from glass tube (inner diameter: 1.5 mm; Narishige) in two stage of a vertical pipette puller (PB-7; Narishige). The ionic current was amplified with a patch amplifier (CEZ-2300; Nihon Kohden Corporation). The noises were cut at 10 kHz (E-3201B, NF Electronic Instrument) and then the ionic current was monitored on a storage oscilloscope (DS-9121, Iwatsu) and, at the same time, recorded with a DAT data recorder (RD-120TE, TEAC). Then it was passed through a 1 kHz filter and recorded in a computer (Compaq DeskPro) with PCLAMP software (Axon Instrument) of 3 kHz. All the experiments were performed at room temperature (25±2° C.). In the measurement of current through the calcium channel, 10 mM barium (composition of the solution: shown below) was used in place of calcium as the charge carrier. The transmission of barium through the calcium channel was better than that of calcium in the sympathetic ganglion cells, and the calcium-dependent channel inactivation was slight when barium was used.
The test compounds were rapidly administered by Y-tube method by Murase et al. [Brain Res. 525, 84 (1990)]. Each compound was dissolved in DMSO, preparing 10 mM mother solution. At the highest drug concentration used, the vehicle (0.1%) had no significant effect on the calcium current.
2) Composition of Normal Tyrode's solution: NaCl; 143, KCl; 4, MgCl2; 0.5; CaCl2; 1.8, glucose; 5.5, NaH2PO4; 0.33, HEPES; 5 (Mm). The pH was adjusted to 7.4 with tris-OH. Composition of Ca-free Tyrode's solution: the same as that of the Normal Tyrode's solution except that it was free of CaCl2.
External solution for the determination of calcium electric current (mM): TEACL; 144, CsCl; 4, BaCl2; […], MgCl2; 0.53, glucose: 5.5, HEPES; 5 (pH 7.4)
Solution in patch electrode: CsCl; 140, MgCl2; 5, CaCl2; 0.28, HEPES; 10 (pH 7.2), EGTA; 5 (pH 7.2).
The electric current was induced by the depolarization for 50 ms, from the holding potential of −60 mV to the test potential of 0 mV. This test potential was the peak in the current/voltage relationship, and the inhibition effect was examined at this point at which the error by the drift of the holding potential was reduced. As Tsein et al. reported, the maxillary ganglion cells were substantially free of L-type component (not more than 5%), and at least 85% thereof comprised the N-type component. […] The inhibition activity of the dihydropyridine derivatives (1 uM) thus determined was 10 to 70%.

L-type calcium channel = L-type calcium channel inhibition

Row | inhibition at 0.1 µM (N-type calcium channel) | IC50 (L-type calcium channel) | Structure (SMILES) | L-type inhibition 100 nM (%) (L-type calcium channel)
1 | 47.5% | 6.3 nM | CC1=C(C(=O)O)C(c2cccc(C#N)c2)C(C(=O)OC/C=C/c2ccccc2)=C(C)N1 (stereo not drawn) [Example 3, mono(3-phenyl-2-propene-1-yl) 4-(3-cyanophenyl)-2,6-dimethyl-1,4-dihydropyridine-3,5-dicarboxylate] | 98%
2 | 31.4% | 32 nM | CC1=C(C(N)=O)C(c2cccc(Cl)c2)C(C(=O)OC/C=C/c2ccccc2)=C(C)N1 (stereo not drawn) [Example 8, (3-phenyl-2-propene-1-yl) 5-carbamoyl-4-(3-chlorophenyl) -2,6-dimethyl-1,4-dihydropyridine-3-carboxylate] | 75%
3 | 21.3% | 82 nM | CC1=C(C#N)C(c2cccc(Cl)c2)C(C(=O)OC/C=C/c2ccccc2)=C(C)N1 (stereo not drawn) [Example 9, (3-phenyl-2-propene-1-yl) 4-(3-chlorophenyl) -5-cyano-2,6-dimethyl-1,4-dihydropyridine-3-carboxylate] | 56%
4 | 28.6% | 50 nM | CC1=C(C(=O)O)C(c2cccc(Cl)c2)C(C(=O)OCC(=O)Nc2ccccc2)=C(C)N1 (stereo not drawn) [Example 14, mono(phenylcarbamoylmethyl) 4-(3-chlorophenyl)-2,6-dimethyl-1,4-dihydropyridine-3,5-dicarboxylate] | 70%
5 | 24.3% | 250 nM | COc1cccc(C2C(C(=O)O)=C(C)NC(C)=C2C(=O)OC/C=C/c2ccccc2)c1 (stereo not drawn) [Example 20, mono(3-phenyl-2-propene-1-yl) 4-(3-methoxyphenyl)-2,6-dimethyl-1,4-dihydropyridine-3,5-dicarboxylate] | 38%
